{
  "source": "patent US6875594B2",
  "about": "“Methods of ligating expressed proteins” (The Rockefeller University, priority 1997, dated 2005)",
  "molecular_target": "AsiA (Enterobacteria phage T4, UniProt P32267)",
  "sequence (P32267 whole entry, the tested form may be a part)": "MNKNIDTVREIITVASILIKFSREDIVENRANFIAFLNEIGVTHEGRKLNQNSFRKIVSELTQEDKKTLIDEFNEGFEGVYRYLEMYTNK",
  "settings": "His-tagged σ fragment on Ni2+-NTA beads, imidazole elution",
  "experimental": "The complementary experiment was done using wild type, untagged AsiA. Instead, a synthetic hexahistidine tag was chemically ligated to the N-terminus of σ568-600 as described herein. AsiA and His-tagged σ fragment were loaded on Ni^2+NTA beads, the beads were washed and eluted with increasing concentrations of imidazole in the buffer.\n100 μl reactions contained 15 μl of Ni^2+-NTA agarose (Qiagen), 50-100 pmol σ^70 or σ^70 derivative, 200 pmol AsiAHis, 20 mM Tris-HCl, pH 7.9, 100 mM KCl, 10 mM MgCl2. Reactions were preincubated for 15 min at room temperature, after which the beads were pelleted by brief centrifugation and the supernatant, containing the unbound material was removed. The beads were then washed three times with the same buffer containing 10 mM imidazole, pH 8.0, resuspended in 50 μl of the buffer containing 100 mM imidazole and incubated for additional 15 min at room temperature. The supernatant containing the bound material was then withdrawn. Aliquots of the reactions were then analyzed on 8-25% Phast gels (Pharmacia) and silver stained.",
  "data": [
    {"substance": "His6-Cys-[SCH2]-aminocaproate-σ568-600 [His-tagged σ568-600]", "values": [
      {"measurement": "interaction with wild type, untagged AsiA", "result": "strong interaction"}
    ]}
  ]
}
